Reference: ChEMBL document CHEMBL3351465, “Discovery of functionalized bisimidazoles bearing cyclic aliphatic-phenyl motifs as HCV NS5A inhibitors” (Bioorg Med Chem Lett, 2014)
Values after ≈ are worked out from the molar mass of the structure shown.

Legend:
[1] = Inhibition of HCV genotype-1b NS5A; parameters: species or system Hepatitis C virus subtype 1b
[2] = Inhibition of NS5A in HCV genotype-1b infected in human HuH7 cells by luciferase reporter gene assay; format: cell-based, Hepatitis C virus subtype 1b; conditions: Hepatitis C virus, Huh-7
[3] = Inhibition of HCV genotype-1a NS5A; parameters: species or system Hepatitis C virus subtype 1a
[4] = Inhibition of NS5A in HCV genotype-1a infected in human HuH7 cells by luciferase reporter gene assay; format: cell-based, Hepatitis C virus subtype 1a; conditions: Hepatitis C virus, Huh-7
[5] = AUClast in Sprague-Dawley rat at 10 mg/kg, po; format: ADME, organism-based; parameters: time 0 - last, dose 10 mg/kg, route oral; conditions: plasma
[6] = Drug uptake in Sprague-Dawley rat liver at 10 mg/kg, po after 4 hrs; format: ADME, organism-based; parameters: dose 10 mg/kg, route oral; conditions: read-out: Drug uptake
[7] = Oral bioavailability in Sprague-Dawley rat at 10 mg/kg; format: ADME, organism-based; conditions: in vivo
[8] = AUClast in Sprague-Dawley rat at 2 mg/kg, iv; format: ADME, organism-based; parameters: time 0 - last, dose 2 mg/kg, route intravenous; conditions: plasma
[9] = Plasma concentration in Sprague-Dawley rat at 10 mg/kg, po after 4 hrs; format: ADME, organism-based; parameters: dose 10 mg/kg, route oral
[10] = Clearance in Sprague-Dawley rat at 2 mg/kg, iv; format: ADME, organism-based; parameters: dose 2 mg/kg, route intravenous; conditions: in vivo
[11] = Half life in Sprague-Dawley rat at 2 mg/kg, iv; format: ADME, organism-based; parameters: dose 2 mg/kg, route intravenous; conditions: in vivo
[12] = Volume of distribution at steady state in Sprague-Dawley rat at 2 mg/kg, iv; format: ADME, organism-based; parameters: dose 2 mg/kg, route intravenous; conditions: in vivo, read-out: Vdss
[13] = Tmax in Sprague-Dawley rat at 10 mg/kg, po; format: ADME, organism-based; parameters: dose 10 mg/kg, route oral; conditions: in vivo
[14] = Cmax in Sprague-Dawley rat at 10 mg/kg, po; format: ADME, organism-based; parameters: dose 10 mg/kg, route oral; conditions: in vivo
[15] = Solubility of the compound at pH 7.4 by UV detection method; format: physicochemical; conditions: buffer
[16] = Plasma concentration in Sprague-Dawley rat […] at 5 mg/kg, po after 4 hrs; format: ADME, organism-based; parameters: dose 5 mg/kg, route oral
[17] = AUClast in Sprague-Dawley rat at 1 mg/kg, iv; format: ADME, organism-based; parameters: time 0 - last, dose 1 mg/kg, route intravenous; conditions: plasma
[18] = Drug uptake in Sprague-Dawley rat liver at 5 mg/kg, po after 4 hrs; format: ADME, organism-based; parameters: dose 5 mg/kg, route oral; conditions: read-out: Drug uptake
[19] = Half life in Sprague-Dawley rat at 1 mg/kg, iv; format: ADME, organism-based; parameters: dose 1 mg/kg, route intravenous; conditions: in vivo
[20] = Oral bioavailability in Sprague-Dawley rat at 5 mg/kg; format: ADME, organism-based; conditions: in vivo
[21] = Clearance in Sprague-Dawley rat at 1 mg/kg, iv; format: ADME, organism-based; parameters: dose 1 mg/kg, route intravenous; conditions: in vivo
[22] = Tmax in Sprague-Dawley rat at 5 mg/kg, po; format: ADME, organism-based; parameters: dose 5 mg/kg, route oral; conditions: in vivo
[23] = AUClast in Sprague-Dawley rat at 5 mg/kg, po; format: ADME, organism-based; parameters: time 0 - last, dose 5 mg/kg, route oral; conditions: plasma
[24] = Volume of distribution at steady state in Sprague-Dawley rat at 1 mg/kg, iv; format: ADME, organism-based; parameters: dose 1 mg/kg, route intravenous; conditions: in vivo, read-out: Vdss
[25] = Cmax in Sprague-Dawley rat at 5 mg/kg, po; format: ADME, organism-based; parameters: dose 5 mg/kg, route oral; conditions: in vivo
[26] = Oral bioavailability in cynomolgus monkey at 5 mg/kg; format: ADME, organism-based, Macaca fascicularis; conditions: in vivo
[27] = Clearance in cynomolgus monkey at 1 mg/kg, iv; format: ADME, organism-based, Macaca fascicularis; parameters: dose 1 mg/kg, route intravenous; conditions: in vivo
[28] = Cmax in Sprague-Dawley rat at 100 mg/kg, po; format: ADME, organism-based; parameters: dose 100 mg/kg, route oral; conditions: in vivo
[29] = Cmax in cynomolgus monkey at 5 mg/kg, po; format: ADME, organism-based, Macaca fascicularis; parameters: dose 5 mg/kg, route oral; conditions: in vivo
[30] = AUClast in cynomolgus monkey at 5 mg/kg, po; format: ADME, organism-based, Macaca fascicularis; parameters: time 0 - last, dose 5 mg/kg, route oral; conditions: plasma
[31] = Plasma concentration in Sprague-Dawley rat […] at 100 mg/kg, po after 4 hrs; format: ADME, organism-based; parameters: dose 100 mg/kg, route oral
[32] = Half life in cynomolgus monkey at 1 mg/kg, iv; format: ADME, organism-based, Macaca fascicularis; parameters: dose 1 mg/kg, route intravenous; conditions: in vivo
[33] = AUClast in Sprague-Dawley rat at 100 mg/kg, po; format: ADME, organism-based; parameters: time 0 - last, dose 100 mg/kg, route oral; conditions: plasma
[34] = Volume of distribution at steady state in cynomolgus monkey at 1 mg/kg, iv; format: ADME, organism-based, Macaca fascicularis; parameters: dose 1 mg/kg, route intravenous; conditions: in vivo, read-out: Vdss
[35] = Tmax in Sprague-Dawley rat at 100 mg/kg, po; format: ADME, organism-based; parameters: dose 100 mg/kg, route oral; conditions: in vivo
[36] = AUClast in cynomolgus monkey at 1 mg/kg, iv; format: ADME, organism-based, Macaca fascicularis; parameters: dose 1 mg/kg, route intravenous, time 0 - last; conditions: plasma
[37] = Tmax in cynomolgus monkey at 5 mg/kg, po; format: ADME, organism-based, Macaca fascicularis; parameters: dose 5 mg/kg, route oral; conditions: in vivo

Structure (SMILES): COC(=O)N[C@@H](C(=O)N1CCC[C@H]1c1ncc(-c2ccc(-c3ccc(-c4cnc([C@@H]5CCCN5C(=O)[C@H](NC(=O)OC)c5ccccc5)[nH]4)cc3)cc2)[nH]1)c1ccccc1
- EC50 [1]: 0.009 nM
- EC50 [2]: 0.009 nM
- EC50 [3]: 0.05 nM
- EC50 [4]: 0.079 nM

Structure (SMILES): COC(=O)N[C@@H](C(=O)N1CCC[C@H]1c1ncc(-c2ccc(N3CCC(c4cnc([C@@H]5CCCN5C(=O)[C@H](NC(=O)OC)c5ccccc5)[nH]4)CC3)c(F)c2)[nH]1)c1ccccc1
- AUC(0-t) [5]: 109 ng·h/mL
- concentration at 4 h [6]: 4 ng/mL
- bioavailability [7]: 1.2%
- EC50 [2]: 0.095 nM
- AUC(0-t) [8]: 2060 ng·h/mL
- concentration at 4 h [9]: 8.4 ng/mL
- clearance [10]: 17.7 mL/min/kg
- half-life [11]: 1.9 h
- Vd [12]: 1.39 L/kg
- Tmax [13]: 0.67 h
- Cmax [14]: 41.5 ng/mL
- EC50 [4]: 38 nM

Structure (SMILES): COC(=O)N[C@@H](C(=O)N1CCC[C@H]1c1ncc(-c2cc(F)c(N3CCC(c4cnc([C@@H]5CCCN5C(=O)[C@H](NC(=O)OC)c5ccccc5)[nH]4)CC3)c(F)c2)[nH]1)c1ccccc1
- EC50 [2]: 0.033 nM
- EC50 [4]: 14 nM

Structure (SMILES): COC(=O)N[C@H](C(=O)N1CCC[C@H]1c1ncc(-c2cc(F)c(N3CCC(c4cnc([C@@H]5CCCN5C(=O)[C@@H](NC(=O)OC)C(C)C)[nH]4)CC3)c(F)c2)[nH]1)C(C)C
- solubility [15]: 87.5 µg/mL (≈ 112 µM)
- EC50 [2]: 0.054 nM
- EC50 [4]: 3.8 nM

Structure (SMILES): COC(=O)N[C@@H](C(=O)N1CCC[C@H]1c1ncc(-c2cc(F)c(N3CCC(c4cnc([C@@H]5CCCN5C(=O)[C@H](NC(=O)OC)C(C)C)[nH]4)CC3)c(F)c2)[nH]1)C(C)C
- EC50 [2]: > 3.7 nM
- EC50 [4]: > 100 nM

Structure (SMILES): COC(=O)N[C@H](C(=O)N1CCC[C@H]1c1ncc(-c2cc(F)c(N3CCC(C)(c4cnc([C@@H]5CCCN5C(=O)[C@@H](NC(=O)OC)C(C)C)[nH]4)CC3)c(F)c2)[nH]1)C(C)C
- EC50 [2]: 0.081 nM
- EC50 [4]: > 100 nM

Structure (SMILES): COC(=O)N[C@@H](C(=O)N1CCC[C@H]1c1ncc(-c2ccc([C@H]3CC[C@H](c4cnc([C@@H]5CCCN5C(=O)[C@H](NC(=O)OC)c5ccccc5)[nH]4)CC3)cc2)[nH]1)c1ccccc1
- EC50 [2]: 0.061 nM
- EC50 [4]: 5.2 nM

Structure (SMILES): COC(=O)N[C@H](C(=O)N1CCC[C@H]1c1ncc(-c2ccc([C@H]3CC[C@H](c4cnc([C@@H]5CCCN5C(=O)[C@@H](NC(=O)OC)C(C)C)[nH]4)CC3)cc2)[nH]1)C(C)C
- concentration at 4 h [16]: 108 ng/mL
- AUC(0-t) [17]: 706 ng·h/mL
- solubility [15]: 66.3 µg/mL (≈ 89 µM)
- concentration at 4 h [18]: 665 ng/mL
- EC50 [2]: 0.05 nM
- half-life [19]: 1.33 h
- bioavailability [20]: 44.2%
- clearance [21]: 23.7 mL/min/kg
- EC50 [4]: 2 nM
- Tmax [22]: 0.67 h
- AUC(0-t) [23]: 1540 ng·h/mL
- Vd [24]: 1.53 L/kg
- Cmax [25]: 554 ng/mL

Structure (SMILES): COC(=O)N[C@H](C(=O)N1CCC[C@H]1c1ncc(-c2ccc([C@H]3CC[C@](C)(c4cnc([C@@H]5CCCN5C(=O)[C@@H](NC(=O)OC)C(C)C)[nH]4)CC3)cc2)[nH]1)C(C)C
- EC50 [2]: 1.3 nM
- EC50 [4]: > 100 nM

Structure (SMILES): COC(=O)N[C@H](C(=O)N1CCC[C@H]1c1ncc(-c2ccc(C34CCC(c5cnc([C@@H]6CCCN6C(=O)[C@@H](NC(=O)OC)C(C)C)[nH]5)(CC3)CC4)cc2)[nH]1)C(C)C
- bioavailability [26]: 61.1%
- clearance [27]: 6.5 mL/min/kg
- concentration at 4 h [16]: 653 ng/mL
- AUC(0-t) [17]: 1050 ng·h/mL
- solubility [15]: 45 µg/mL (≈ 58.4 µM)
- Cmax [28]: 19100 ng/mL
- concentration at 4 h [18]: 2590 ng/mL
- Cmax [29]: 1400 ng/mL
- EC50 [2]: 0.06 nM
- half-life [19]: 1.2 h
- AUC(0-t) [30]: 7930 ng·h/mL
- bioavailability [20]: 124%
- concentration at 4 h [31]: 15800 ng/mL
- half-life [32]: 1.24 h
- AUC(0-t) [33]: 242000 ng·h/mL
- Vd [34]: 0.64 L/kg
- clearance [21]: 15.7 mL/min/kg
- Tmax [35]: 2 h
- AUC(0-t) [36]: 2570 ng·h/mL
- EC50 [4]: 1.4 nM
- Tmax [22]: 1.17 h
- AUC(0-t) [23]: 6580 ng·h/mL
- Vd [24]: 1.31 L/kg
- Cmax [25]: 980 ng/mL
- Tmax [37]: 4 h

Structure (SMILES): COC(=O)N[C@H](C(=O)N1CCC[C@H]1c1ncc(-c2cc(F)c(N3CCC(c4cnc([C@@H]5CCCCN5C(=O)[C@@H](NC(=O)OC)C(C)C)[nH]4)CC3)c(F)c2)[nH]1)C(C)C
- EC50 [2]: 0.09 nM
- EC50 [4]: 34 nM

Structure (SMILES): COC(=O)N[C@@H](C(=O)N1CCC[C@H]1c1ncc(-c2cc(F)c(N3CCC(c4cnc([C@@H]5COCCN5C(=O)[C@H](NC(=O)OC)c5ccccc5)[nH]4)CC3)c(F)c2)[nH]1)c1ccccc1
- EC50 [2]: 0.05 nM
- EC50 [4]: 38 nM

Structure (SMILES): COC(=O)N[C@H](C(=O)N(C)[C@@H](C)c1ncc(C2CCN(c3c(F)cc(-c4cnc([C@@H]5CCCN5C(=O)[C@@H](NC(=O)OC)C(C)C)[nH]4)cc3F)CC2)[nH]1)C(C)C
- EC50 [2]: 0.54 nM
- EC50 [4]: > 100 nM
